Experimental findings from patent publication US20110015371A1 (Vertex Pharmaceuticals Incorporated, priority 1994, published 2011) are described below.

Experiment [1] concerns the target T1, ICE (Homo sapiens, UniProt P29466).
T1 sequence (P29466 120-297 limits assumed): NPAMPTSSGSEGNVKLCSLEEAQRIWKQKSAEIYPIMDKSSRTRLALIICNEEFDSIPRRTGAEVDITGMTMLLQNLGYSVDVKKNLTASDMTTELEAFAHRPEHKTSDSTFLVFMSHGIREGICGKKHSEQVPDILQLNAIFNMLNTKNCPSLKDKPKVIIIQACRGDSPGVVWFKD
T1 sequence (P29466 317-404 limits assumed): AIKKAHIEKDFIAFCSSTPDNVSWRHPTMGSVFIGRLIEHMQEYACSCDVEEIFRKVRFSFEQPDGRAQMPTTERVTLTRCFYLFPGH
Kind of experiment: Enzyme assay with UV-visible substrate (Succinyl-Tyr-Val-Ala-Asp-pNitroanilide). In kind it is biochemical. As for the experimental part:
1. Enzyme Assay with UV-Visible Substrate
This assay is run using an Succinyl-Tyr-Val-Ala-Asp-pNitroanilide substrate. Synthesis of analogous substrates is described by L. A. Reiter (Int. J. Peptide Protein Res. 43, 87-96 (1994)). The assay mixture contains:
The visible ICE assay is run in a 96-well microtiter plate. Buffer, ICE and DMSO (if inhibitor is present) are added to the wells in the order listed. The components are left to incubate at room temperature for 15 minutes starting at the time that all components are present in all wells. The microtiter plate reader is set to incubate at 37° C. After the 15 minute incubation, substrate is added directly to the wells and the reaction is monitored by following the release of the chromophore (pNA) at 405-603 nm at 37° C. for 20 minutes. A linear fit of the data is performed and the rate is calculated in mOD/min. DMSO is only present during experiments involving inhibitors, buffer is used to make up the volume to 100 μl in the other experiments.
For determination of enzyme inhibition constants (Ki) or the mode of inhibition (competitive, uncompetitive or noncompetitive), the rate data determined in the enzyme assays at varying inhibitor concentrations are computer-fit to standard enzyme kinetic equations (see I. H. Segel, Enzyme Kinetics, Wiley-Interscience, 1975).

The test system of experiment [2] is Human Peripheral Blood Mononuclear Cells (PBMC) or Enriched Adherent Mononuclear Cells. Kind of experiment: Cell assay: IL-1β assay with human PBMC or enriched adherent mononuclear cells. The following applies: LPS-stimulated cells, mature IL-1β in supernatant by ELISA. In kind it is cell-based. The text has this: IL-1β Assay with a Mixed Population of Human Peripheral Blood Mononuclear Cells (PBMC) or Enriched Adherent Mononuclear Cells
Processing of pre-IL-1S by ICE can be measured in cell culture using a variety of cell sources. Human PBMC obtained from healthy donors provides a mixed population of lymphocyte subtypes and mononuclear cells that produce a spectrum of interleukins and cytokines in response to many classes of physiological stimulators. Adherent mononuclear cells from PBMC provides an enriched source of normal monocytes for selective studies of cytokine production by activated cells.
An initial dilution series of test compound in DMSO or ethanol is prepared, with a subsequent dilution into RPMI-10% FBS media (containing 2 mM L-glutamine, 10 mM HEPES, 50 U and 50 ug/ml pen/strep) respectively to yield drugs at 4× the final test concentration containing 0.4% DMSO or 0.4% ethanol. The final concentration of DMSO is 0.1% for all drug dilutions. A concentration titration which brackets the apparent Ki for a test compound determined in an ICE inhibition assay is generally used for the primary compound screen.
We generally test 5-6 compound dilutions and have performed the cellular component of the assay in duplicate, with duplicate ELISA determinations on each cell culture supernatant.
Buffy coat cells isolated from one pint human blood (yielding 40-45 ml final volume plasma plus cells) are diluted with media to 80 ml and LeukoPREP separation tubes (Becton Dickinson) are each overlaid with 10 ml of cell suspension. After 15 min centrifugation at 1500-1800×g, the plasma/media layer is aspirated and then the mononuclear cell layer is collected with a Pasteur pipette and transferred to a 15 ml conical centrifuge tube (Corning). Media is added to bring the volume to 15 ml, gently mix the cells by inversion and centrifuge at 300×g for 15 min. Resuspend the PBMC pellet in a small volume of media, count cells and adjust to 6×10^6 cells/ml.
For the cellular assay, add 1.0 ml of the cell suspension to each well of a 24-well flat bottom tissue culture plate (Corning), 0.5 ml test compound dilution and 0.5 ml LPS solution (Sigma #L-3012; 20 ng/ml solution prepared in complete RPMI media; final LPS concentration 5 ng/ml). The 0.5 ml additions of test compound and LPS are usually sufficient to mix the contents of the wells. Three control mixtures are run per experiment, with either LPS alone, solvent vehicle control, and/or additional media to adjust the final culture volume to 2.0 ml. The cell cultures are incubated for 16-18 hr at 37° C. in the presence of 5% CO2.
At the end of the incubation period, cells are harvested and transferred to 15 ml conical centrifuge tubes. After centrifugation for 10 min at 200×g, supernatants are harvested and transferred to 1.5 ml Eppendorf tubes. It may be noted that the cell pellet may be utilized for a biochemical evaluation of pre-IL-1S and/or mature IL-1β content in cytosol extracts by western blotting or ELISA with pre-IL-1β specific antisera.
PBMC are isolated and prepared as described above. Media (1.0 ml) is first added to wells followed by 0.5 ml of the PBMC suspension. After a one hour incubation, plates are gently shaken and nonadherent cells aspirated from each well. Wells are then gently washed three times with 1.0 ml of media and final resuspended in 1.0 ml media. The enrichment for adherent cells generally yields 2.5−3.0×10^5 cells per well. The addition of test compounds, LPS, cell incubation conditions and processing of supernatants proceeds as described above.
We have used Quantikine kits (R&D Systems) for measurement of mature IL-1β. Assays are performed according to the manufacturer's directions. Mature IL-1β levels of about 1-3 ng/ml in both PBMC and adherent mononuclear cell positive controls are observed. ELISA assays are performed on 1:5, 1:10 and 1:20 dilutions of supernatants from LPS-positive controls to select the optimal dilution for supernatants in the test panel.

The mark [3] stands for this setting: Homo sapiens, PBMC, Example 6 table.

Some results are limits rather than exact numbers.

The compound `CC(C)[C@H](NC(=O)OCc1ccccc1)C(=O)N[C@@H](C)C(=O)N[C@@H](CC(=O)O)C(=O)c1nc2ccccc2o1` [Compound 63, (3S)N-(N-Benzyloxycarbonyl-(S)-valinyl-(S)-alaninyl)-3-amino-4-(2-benzoxazolyl)-4-oxobutanoate] registered a Ki in experiment [1] (Example 4 table) of 850 nM. The IC50 in experiment [2] (Example 4 table) came to 4100 nM.

Regarding `COc1cccc2nc(C(=O)[C@H](CC(=O)O)NC(=O)[C@H](C)NC(=O)[C@@H](NC(=O)[C@H](Cc3ccc(O)cc3)NC(C)=O)C(C)C)oc12` [Compound 69a, (3S)N-(N-Acetyl-(S)-tyrosinyl-(S)-valinyl-(S)-alaninyl)-3-amino-4-(2-(7-methoxybenzoxazolyl))-4-oxobutanoate], the inhibition constant Ki in experiment [1] (Example 4 table) is 11 nM. Moreover, it took 735 nM to reach half-maximal inhibition in experiment [2] (Homo sapiens, PBMC, Example 4 table) (IC50).

The compound `COc1cccc2nc(C(=O)[C@H](CC(=O)O)NC(=O)[C@@H]3C[C@@H](Oc4ccccc4)CN3C(=O)[C@@H](NC(C)=O)C(C)C)oc12` [Compound 86, N-Acetyl-(S)-valinyl-(4-(S)-phenoxy)prolinyl-3(S)-amino-4-(7-methoxybenzoxazol-2-yl)-4-oxo-butanoic acid] registered a Ki in experiment [1] (Example 6 table) of 175 nM. In experiment [2] (setting [3]), this compound showed a half-inhibitory concentration (IC50) of 4000 nM.

Compound `COc1cccc2nc(C(=O)[C@H](CC(=O)O)NC(=O)[C@@H]3C[C@@H](Oc4ccccc4)CN3C(C)=O)oc12` [Compound 87, N-Acetyl(4-(R)-phenoxy)prolinyl-3(S)-amino-4-(7-methoxybenzoxazol-2-yl)-4-oxo-butanoic acid] yielded an inhibition constant (Ki) in experiment [1] (Example 6 table) of 7200 nM. In addition, the midpoint of inhibition in experiment [2] (setting [3]), the IC50, lay at 35000 nM.

In the case of `O=C(O)C[C@H](NC(=O)Cn1c(Cc2ccccc2)ccc(NC(=O)CCc2ccccc2)c1=O)C(=O)COCc1ccccc1Cl` [Compound 90, N-2-(6-Benzyl-1,2-dihydro-2-oxo-3-(3-phenylpropionyl)amino-1-pyridyl)acetyl-3-amino-5-(2-chlorobenzyloxy)-4-oxo-pentanoic acid], affinity in experiment [1] (Example 6 table) was put at a Ki of 420 nM. In experiment [2] (setting [3]), this compound yielded an IC50 of 6200 nM.

Take `O=C(O)C[C@H](NC(=O)Cn1c(Cc2ccccc2)ccc(NC(=O)CCc2ccccc2)c1=O)C(=O)c1ncc(-c2c(Cl)cccc2Cl)s1` [Compound 91]: affinity in experiment [1] (Example 6 table) was put at a Ki of 260 nM. The compound further had a half-maximal inhibitory concentration (IC50) in experiment [2] (setting [3]) above 25000 nM.

In the case of `O=C[C@H](CC(=O)O)NC(=O)[C@@H]1CCc2ncc(NC(=O)CCc3ccccc3)c(=O)n21` [Compound 98, 4-Oxo-(3S)-{[4-oxo-3-(3-phenyl-propionylamino)-4,6,7,8-tetrahydro-pyrrolo[1,2-a]pyrimidine-(6S)-carbonyl]-amino}-butyric acid], the Ki in experiment [1] (Example 6 table) was found to be 535 nM. The compound also showed an IC50 in experiment [2] (setting [3]) of 4000 nM.

In experiment [1] (Example 6 table), `COc1cccc2nc(C(=O)[C@H](CC(=O)O)NC(=O)[C@@H]3CCc4ncc(NC(=O)CCc5ccccc5)c(=O)n43)oc12` [Compound 102b, 4-(7-methyoxy-benzoxazol-2-yl)-4-oxo-(3S)-{[4-oxo-3-(3-phenyl-propionylamino)-4,6,7,8-tetrahydro-pyrrolo[1,2-a]pyrimidine-(6S)-carbonyl]-amino}-butric acid] gave a Ki of 290 nM. This compound had an IC50 in experiment [2] (setting [3]) of 1750 nM.

For the compound `O=C[C@H](CC(=O)O)NC(=O)CN1C(=O)[C@@H](NC(=O)CCc2ccccc2)CNc2ccccc21` [Compound 106a], in experiment [1] (Example 6 table), the Ki is 2300 nM. In experiment [2] (setting [3]), this compound showed a concentration for half-maximal inhibition (IC50) of 30000 nM.

`O=C[C@H](CC(=O)O)NC(=O)CN1C(=O)[C@@H](NC(=O)CCc2ccccc2)CN(Cc2ccccc2)c2ccccc21` [Compound 106c, 3(S)-{2-[5-Benzyl-2-oxo-3-(3(S)-phenylpropionylamino)-2,3,4,5-tetrahydrobenzo[b][1, 4]diazepin-1-yl]-acetylamino}-4-oxobutyric acid]: in experiment [1] (Example 6 table), the inhibition constant Ki was 3800 nM. The compound further showed an IC50 in experiment [2] (setting [3]) above 30000 nM.

With `COc1cccc2nc(C(=O)[C@H](CC(=O)O)NC(=O)CN3C(=O)[C@@H](NC(=O)CCc4ccccc4)CN(C(=O)CCc4ccccc4)c4ccccc43)oc12` [Compound 108b, 4-(7-Methoxybenzoxazol-2-yl)-4-oxo-3(S)-{2-[2-oxo-5-(3-phenylpropionyl)-3(S)-(3-phenylpropionylamino)-2,3,4,5-tetrahydrobenzo[b][1,4]diazepin-1-yl]-acetylamino}butyric acid], in experiment [1] (Example 6 table), the Ki amounted to 400 nM. In experiment [2] (setting [3]), this compound showed an IC50 of 25000 nM.
